Measured values taken from patent US20260335344A1, “NOVEL FORMULATIONS AND USES” (DANSTAR FERMENT AG, priority 2022, published 2026).
Entries after “also recorded” stand apart in the source; their conditions may differ.

Legend:
Acinetobacter baumannii = assay: Relative quantity of Acinetobacter baumannii by metagenomic (16S rRNA) sequencing after L-arabinose treatment; format: cell-based
From the text: (§1) The objective of the experiments is to evaluate the effect of L-arabinose at different concentrations on a bacterial pool mimicking the skin microbiota by quantification of the bacterial mix using metagenomic sequencing. Five different types of bacteria are obtained from ATCC®: Micrococcus luteus (Cat. No. 4698), Corynebacterium striatum (Cat. No. BAA-1293), Staphylococcus epidermidis (Cat. No. 12228), Acinetobacter baumannii (Cat. No. 19606) and Streptococcus mitis (Cat. No. NCIMB-13770). The bacteria are common skin bacteria, selected to roughly mimic the skin microbiota. The bacteria are grown on specific media, either solid media (Brain Heart Infusion (BHI) Agar from Condalab (Cat. No. 1048.00) or Trypticase Soy (TS) Agar from Condalab (Cat. No. 1068.00)) or on liquid media (either Brain Heart Infusion Broth from Condalab (Cat. No. 1400.00) or Trypticase Soy Broth from Condalab (Cat. No. 1224.00)). The bacteria culture is performed according to the ATCC instructions and adapted to the specific conditions of each bacterium: all bacteria are grown in BHI medium at 37° C. in an aerobic environment shaking at 120 rpm, except for Streptococcus mitis which requires an anaerobic environment, so without shaking and with paraffin oil from Sigma-Aldrich (Cat. No. 185812) above the medium to cut off contact with air.
(§2) Growth kinetics are carried out for each bacterium to determine their different growth phases and in particular the time needed to reach the exponential phase. Aerobically growing bacteria are plated on solid medium and then a colony is inoculated into 10 mL of liquid medium. An OD at 600 nm is then taken at regular time intervals from T0, the inoculation time, to obtain a growth curve until reaching the stationary phase. Anaerobically growing bacteria are directly inoculated at 500 μL into 9.5 mL of medium.
(§3) Bacteria are treated during 6 hours with L-arabinose, diluted in culture medium. L-Arabinose is first resuspended in culture medium at a concentration of 5%. The following dilutions are directly realized in culture medium at the following concentrations: 3.5%, 2%, 1% and 0.5%.
(§4) Each bacterium from the mix is initially grown independently. Once the exponential phase starts, Corynebacterium striatum, Micrococcus luteus and Staphylococcus epidermidis are mixed and grown in the presence or not of the L-arabinose at different concentrations for 6 hours, before reaching the stationary phase. Acinetobacter baumannii and Streptococcus mitis are grown independently with the L-arabinose due to their specific nature (Biosafety Level 2 (BSL-2) bacteria and anaerobic growth for Streptococcus mitis) and pulled in the final mix. Then, the mix is centrifugated and sent to sequencing. Bacterial DNA is isolated, sequenced, and 16S rRNA sequences are matched to taxonomic databases.
FIG. 2 depicts the relative quantity of Acinetobacter baumannii at different concentrations of L-arabinose. Relative Acinetobacter baumannii abundance is compared in all samples after metagenomic sequencing. Bacteria are treated with L-arabinose at 5 concentrations: 0.5%, 1%, 2%, 3.5% and 5%. Only the OTU identifying the Acinetobacter baumannii genera is represented.
(§5) The statistical analysis for FIGS. 2-5 is performed using two-tailed unpaired T-test vs NT-NS (*p-value<0.05, **p-value<0.01, ***p-value<0.001).

Micrococcus luteus = assay: Relative quantity of Micrococcus luteus by metagenomic (16S rRNA) sequencing after L-arabinose treatment; format: cell-based; details: 6 hours, vs control
From the text: as §1, §2, §3, §4, §5
FIG. 3 depicts the relative quantity of Micrococcus luteus at different concentrations of L-arabinose. Relative Micrococcus luteus abundance is compared in all samples after metagenomic sequencing. Bacteria are treated with L-arabinose at 5 concentrations: 0.5%, 1%, 2%, 3.5% and 5%. Only the OTU identifying the Micrococcus luteus genera is represented.

[1] = tested on: Staphylococcus epidermidis; assay: Relative quantity of Staphylococcus epidermidis by metagenomic (16S rRNA) sequencing after L-arabinose treatment; format: cell-based; details: 6 hours, vs control
From the text: as §1, with “The bacteria culture is performed according to the ATCC instructions and adapted to the specific conditions of each bacterium: all bacteria are grown in BHI medium at 37° C. in an aerobic environment shaking at 120 rpm, except for Streptococcus mitis which requires an anaerobic environment, so without shaking and with paraffin oil from Sigma-Aldrich (Cat. No. 185812) above the medium to cut off contact with air.” left out
FIG. 4 depicts the relative quantity of Staphylococcus epidermidis at different concentrations of L-arabinose. […]

Streptococcus mitis = assay: Relative quantity of Streptococcus mitis by metagenomic (16S rRNA) sequencing after L-arabinose treatment; format: cell-based; details: for relative quantity of Streptococcus mitis / increase of relative quantity of Streptococcus mitis: vs control; for increase of relative quantity of Streptococcus mitis: statistically increases
From the text: as §1, §2, §3, §4, §5
FIG. 5 depicts the relative quantity of Streptococcus mitis at different concentrations of L-arabinose. Relative Streptococcus mitis abundance is compared in all samples after metagenomic sequencing. Bacteria are treated with L-arabinose at 5 concentrations: 0.5%, 1%, 2%, 3.5% and 5%. Only the OTU identifying the Streptococcus mitis genera is represented.

[2] = tested on: bacterial pool mimicking the skin microbiota; assay: Relative quantity of bacteria in the skin microbiota mix by metagenomic sequencing; format: cell-based; details: 6 hours
From the text: as §1, §2, §3, §4
FIG. 6 depicts the relative quantity of bacteria in the skin microbiota mix at different concentrations of L-arabinose. Relative bacteria abundance is detected in all samples after metagenomic sequencing. The bacteria seeded in the mix are Micrococcus luteus, Corynebacterium striatum, Staphylococcus epidermidis, Acinetobacter baumannii and Streptococcus mitis. Bacteria are treated with L-arabinose at 5 concentrations: 0.5%, 1%, 2%, 3.5% and 5%. All the OTUs detected are sorted by genera to be able to differentiate all the bacteria present in every sample.

intestinal sucrase = details: role: inhibitor; substrate sucrose; dietary supplement use; cited from earlier work
[3] = 0.5% to 5% L-arabinose, 6 hours

O=C[C@H](O)[C@@H](O)[C@@H](O)CO [L-arabinose]
effect on Acinetobacter baumannii (Acinetobacter baumannii; 0.5% L-arabinose): promotes Acinetobacter baumannii
increase of relative quantity of Acinetobacter baumannii compared to the NT-NS control (Acinetobacter baumannii; 0.5% L-arabinose, 6 hours, vs NT-NS control): 7%
effect on Acinetobacter baumannii (dose dependence) (Acinetobacter baumannii; [3]): dose-dependent effect
relative quantity of Acinetobacter baumannii (Acinetobacter baumannii; 1% L-arabinose, 6 hours, vs NT-NS control): the same than the control
relative quantity of Acinetobacter baumannii (Acinetobacter baumannii; 2% L-arabinose, 6 hours, vs NT-NS control): the same than the control
decrease of relative quantity of Acinetobacter baumannii compared to the NT-NS control (Acinetobacter baumannii; 5% L-arabinose, 6 hours, vs NT-NS control, statistically decreases): up to 7%
relative quantity of Micrococcus luteus (Micrococcus luteus; 0.5% L-arabinose): inhibit Micrococcus luteus; also recorded: statistically decreases
relative quantity of Micrococcus luteus (Micrococcus luteus; 1% L-arabinose): no statistically significant change
relative quantity of Micrococcus luteus (Micrococcus luteus; 2% L-arabinose): statistically significant increase
relative quantity of Micrococcus luteus (Micrococcus luteus; 3.5% L-arabinose): no statistically significant change
relative quantity of Micrococcus luteus (Micrococcus luteus; 5% L-arabinose): no statistically significant change
relative quantity of Staphylococcus epidermidis ([1]; 0.5% L-arabinose): tendency to decrease
relative quantity of Staphylococcus epidermidis ([1]; other concentrations (1%, 2%, 3.5%, 5%) of L-arabinose): no statistical differences
relative quantity of Streptococcus mitis (Streptococcus mitis; 0.5% L-arabinose, 6 hours): tends to decrease
effect on Streptococcus mitis (dose dependence) (Streptococcus mitis; [3]): dose-dependent effect
relative quantity of Streptococcus mitis (Streptococcus mitis; 1% L-arabinose, 6 hours): tends to decrease
relative quantity of Streptococcus mitis (Streptococcus mitis; 2% L-arabinose, 6 hours): the same than the control
increase of relative quantity of Streptococcus mitis (Streptococcus mitis; 3.5% L-arabinose, 6 hours): more than 2 times
increase of relative quantity of Streptococcus mitis (Streptococcus mitis; 5% L-arabinose, 6 hours): more than 2 times
effect on Streptococcus mitis (Streptococcus mitis; higher concentrations of L-arabinose (3.5% and 5%)): promotes Streptococcus mitis
relative quantity of bacteria in the skin microbiota mix ([2]; 0.5% L-arabinose): Acinetobacter baumannii is outgrowing the other bacteria
homeostasis of the skin microbiota ([2]; 1% L-arabinose): maintaining the homeostasis of skin microbiota; also recorded: safekeeping the homeostasis of the skin microbiota
difference of the bacterial mix compared to the NT-NS control ([2]; 1% or 2% L-arabinose, vs NT-NS control): no significant difference
homeostasis of the skin microbiota ([2]; 2% L-arabinose): maintaining the homeostasis of skin microbiota; also recorded: safekeeping the homeostasis of the skin microbiota
relative quantity of bacteria in the skin microbiota mix ([2]; 3.5% L-arabinose): Streptococcus mitis is fast growing at the expense of Acinetobacter baumannii
relative quantity of bacteria in the skin microbiota mix ([2]; 5% L-arabinose): Streptococcus mitis is fast growing at the expense of Acinetobacter baumannii
inhibition of sucrose absorption by inhibiting intestinal sucrase (intestinal sucrase): ability to inhibit absorption of sucrose
